Assay [1] deals with T1, Solute carrier family 2, facilitated glucose transporter member 1 (Homo sapiens) (UniProt P11166).
T1 sequence (whole entry): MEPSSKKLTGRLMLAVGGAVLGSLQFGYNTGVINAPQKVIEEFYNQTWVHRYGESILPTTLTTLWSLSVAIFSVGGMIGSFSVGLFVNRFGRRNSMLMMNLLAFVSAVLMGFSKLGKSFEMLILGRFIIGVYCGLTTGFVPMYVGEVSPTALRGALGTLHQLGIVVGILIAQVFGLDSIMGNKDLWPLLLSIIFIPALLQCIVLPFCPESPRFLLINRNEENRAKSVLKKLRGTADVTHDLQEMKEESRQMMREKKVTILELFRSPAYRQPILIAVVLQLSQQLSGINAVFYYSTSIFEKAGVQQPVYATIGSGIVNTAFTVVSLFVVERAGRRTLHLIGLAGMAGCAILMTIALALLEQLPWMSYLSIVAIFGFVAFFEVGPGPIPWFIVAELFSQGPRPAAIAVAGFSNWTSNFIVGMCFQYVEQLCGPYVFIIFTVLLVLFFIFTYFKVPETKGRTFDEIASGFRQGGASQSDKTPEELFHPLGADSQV
The assay is described as follows: Inhibition of GLUT1 in human H1299 cells assessed as inhibition of 2-deoxy-D-[3H]-glucose uptake at 30 uM incubated for 15 mins prior to 2-deoxy-D-[3H]-glucose addition measured after 30 mins by liquid scintillation counting analysis. Format: cell-based.

The nature of assay [2]: Cytotoxicity against human H1299 cells assessed as growth inhibition after 48 hrs by MTT assay. It counts as functional, cell-based. Conditions: NCI-H1299, 48 h.
In assay [3] the target is T2, Solute carrier family 2, facilitated glucose transporter member 1 (Homo sapiens, UniProt P11166).
T2 sequence (P11166 whole entry): T1 sequence (whole entry)
The assay is described as follows: Inhibition of GLUT1 in human H1299 cells assessed as inhibition of 2-deoxy-D-[3H]-glucose uptake incubated for 15 mins prior to 2-deoxy-D-[3H]-glucose addition measured after 30 mins by liquid scintillation counting analysis. Format: cell-based.

For another assay, the target named is T3, Estrogen receptor (Homo sapiens, UniProt P03372).
T3 sequence (P03372 whole entry): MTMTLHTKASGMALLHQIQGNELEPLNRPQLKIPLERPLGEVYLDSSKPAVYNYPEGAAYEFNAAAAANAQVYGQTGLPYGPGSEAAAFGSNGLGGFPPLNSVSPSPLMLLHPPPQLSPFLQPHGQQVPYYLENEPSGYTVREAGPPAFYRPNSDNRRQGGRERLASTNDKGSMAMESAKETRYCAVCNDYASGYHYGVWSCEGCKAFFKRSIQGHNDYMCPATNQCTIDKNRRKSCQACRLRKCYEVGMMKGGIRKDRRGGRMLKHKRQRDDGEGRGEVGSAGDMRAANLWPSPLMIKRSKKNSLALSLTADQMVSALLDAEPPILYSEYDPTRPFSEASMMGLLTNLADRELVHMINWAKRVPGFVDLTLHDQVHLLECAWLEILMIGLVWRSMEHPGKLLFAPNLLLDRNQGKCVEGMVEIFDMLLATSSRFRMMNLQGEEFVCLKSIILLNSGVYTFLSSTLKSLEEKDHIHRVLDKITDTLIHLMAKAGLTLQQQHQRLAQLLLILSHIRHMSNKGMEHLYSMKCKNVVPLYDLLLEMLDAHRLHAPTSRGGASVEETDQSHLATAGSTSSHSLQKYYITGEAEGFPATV
As to the kind of experiment: Binding affinity to human estrogen receptor assessed as decrease in estradiol-dependent beta-galactosidase activity.

The next assay deals with NCI-H1299. The assay is described as follows: Cytotoxicity against human H1299 cells assessed as growth inhibition at 30 uM after 48 hrs by MTT assay. It counts as functional, cell-based. For orientation: Formazan colour is commonly taken as a measure of viable cells.
For a further assay, the target named is Estrogen receptor beta (Homo sapiens, UniProt Q92731). As to the kind of experiment: Displacement of [3H]E2 from full-length human ERbeta after 18 to 24 hrs by radiometric assay. A general note: Displacement assays read how much labelled ligand stays bound in the presence of the test substance.
Sequence of Estrogen receptor beta (Q92731 whole entry): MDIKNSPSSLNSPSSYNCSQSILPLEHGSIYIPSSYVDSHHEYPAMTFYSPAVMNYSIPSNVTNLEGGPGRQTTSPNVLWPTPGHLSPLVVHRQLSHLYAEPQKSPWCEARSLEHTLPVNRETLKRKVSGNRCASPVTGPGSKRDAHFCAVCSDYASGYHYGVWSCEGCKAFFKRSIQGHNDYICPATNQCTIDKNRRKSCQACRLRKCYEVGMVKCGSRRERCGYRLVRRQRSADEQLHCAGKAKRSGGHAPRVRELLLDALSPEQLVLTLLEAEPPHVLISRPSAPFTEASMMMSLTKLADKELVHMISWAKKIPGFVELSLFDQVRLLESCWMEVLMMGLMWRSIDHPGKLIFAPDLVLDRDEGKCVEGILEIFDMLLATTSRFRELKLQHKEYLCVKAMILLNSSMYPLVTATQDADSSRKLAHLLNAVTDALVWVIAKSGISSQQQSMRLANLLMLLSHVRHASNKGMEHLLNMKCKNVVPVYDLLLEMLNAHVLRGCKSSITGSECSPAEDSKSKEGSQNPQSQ

pIC50, pKd: −log10 of the molar value. The source made the active and inactive calls. The rule behind the calls is not given here.

As usually defined, the pIC50 is the IC50 on a negative log10 scale, so that one unit is a factor of ten. By pKd is commonly meant the negative decadic logarithm of the Kd, by convention in mol/L.

With `N#Cc1c(-c2ccc(O)cc2)ccc(/C=N/O)c1O`, the inhibition result in assay [1] was “Active”.
In the case of `C/C(=N\O)c1ccc(-c2ccc(O)c(F)c2)c(Cl)c1O`, in assay [1], the inhibition entry was “Active”.
Regarding `COc1ccc(-c2ccc(/C(C)=N/O)c(O)c2Cl)cc1F`, the pIC50 in assay [2] is 4.40; in assay [3] it was 4.81.
Turning to `C/C(=N\O)c1ccc(-c2ccc(O)cc2)c(Cl)c1O`, the results for the pIC50 in assay [2] and in assay [3] were 4.46 and 4.97, respectively.
For `COc1ccc(-c2ccc(O)c(/C=N/O)c2)cc1F` the same measures were 4.85 and 5.07.
Take `O=C(CCc1ccc(O)cc1)c1c(O)cc(O)cc1O` [PHLORETIN]: the pIC50 in assay [2] is 4.27; at Estrogen receptor, 6.52; in assay [3], 4.67.
For `O/N=C/c1c(O)ccc(-c2ccc(O)c(F)c2)c1Cl`, in assay [1], the inhibition result is “Active”.
With `O/N=C/c1cc(-c2ccc(O)c(F)c2)ccc1O`, the inhibition result in assay [1] was “Active”. Moreover, in the assay on NCI-H1299, the “growth inhibition (GI)” value is “Active”. This compound also gave a pKd on Estrogen receptor beta of 7.29.
On to `COc1ccc(-c2ccc(/C=N/O)c(O)c2C)cc1`, for which the inhibition result in assay [1] was “Active”.
With `O=C(Oc1cccc(F)c1OC(=O)c1cccc(O)c1)c1cccc(O)c1`, the pIC50 was 4.69 in assay [2] and 4.96 in assay [3].
As to `Cc1c(-c2ccc(O)cc2)ccc(/C=N/O)c1O`, the inhibition entry in assay [1] was “Active”.
As for `COc1ccc(-c2ccc(O)c(/C=N/O)c2)cc1`, the figures for the pIC50 in assay [2] and in assay [3] were 4.69 and 4.63, respectively.
As for `O/N=C/c1c(O)ccc(-c2ccc(O)cc2)c1Cl`, the inhibition result in assay [1] is “Active”.
Take `O/N=C/c1c(O)ccc(-c2ccc(O)cc2)c1-c1ccc(O)cc1`: the inhibition result in assay [1] is “Active”.
`O/N=C/c1cc(-c2ccc(O)cc2)ccc1O`: the inhibition entry in assay [1] is “Active”.

For the origin of these results see ChEMBL document CHEMBL3091275, “Oxime-based inhibitors of glucose transporter 1 displaying antiproliferative effects in cancer cells” (Bioorg Med Chem Lett, 2013).
